The values below come from patent EP3072514A1, “Novel oral anticoagulants (NOACs) for preventing development and aggravation of atrial fibrillation” (Université Pierre et Marie Curie - Paris 6 (UPMC), priority 2015, dated 2016).

Data set [1] concerns blood coagulation. The data set can be described thus: Thrombin time (TT) on blood collected by cardiac puncture at sacrifice of I/R rats. In kind it is in vivo, Male OFA Sprague-dawley rats. The following applies: 25 mg/kg/day (12.5 mg/kg BID) by force-feeding; with reference to the mean value of sham animals. An excerpt: • Figure 1 is a combination of two graphs showing left atrium (LA) area after one month of treatment with DTI Dabigatran (A) or S35792 (B). Vehicle (V) is 60% H2O/40% PEG 300 for dabigatran and saline for S35972. Treatment of rats started just after thoracotomy without (Sham) or with occlusion of left coronary artery followed by reperfusion (I/R). […] Vehicle (V) is 60% H2O/40% PEG 300 for dabigatran and saline for S35972. Treatment of rats started just after thoracotomy without (Sham) or with occlusion of left coronary artery followed by reperfusion (I/R). Results are presented as mean +/- S.E.M. * P<0.05; ** P<0.001, *** P<0.001 vs Sham; #P<0.05 vs untreated I/R. • Figure 3 is a combination of two graphs showing thrombin time (TT), which reflects anticoagulant activity, and plasma concentrations of Dabigatran (A) and S35792 (B) in rats after throracotomy with occlusion of left coronary artery followed by reperfusion (I/R). Vehicle (V) is 60% H2O/40% PEG 300 for dabigatran and saline for S35972. […] DTI plasma levels are quantified using LC-MS/MS. TT are expressed as mean +/- S.E.M with reference to the mean value of sham animals that underwent thoracotomy only. *** P<0.001 vs untreated I/R. • Figure 4 is a combination of three graphs showing left atrium (LA) area (A) and diameter (B) and left ventricle end-diastolic (LVED) diameter (C) after two months of treatment with S35972. […] LA area was measured by bidimensional echocardiography. LA and LVED diameters were measured in time-motion mode. […] AF duration is measured as the time between the end of the electric stimulation and the return to sinusoidal rhythm. […] Expression of mRNA was measured with real-time qPCR. […] Expression of mRNA was measured with real-time qPCR. […] Expression of mRNA was measured with real-time qPCR. […] LA area was measured by bidimensional echocardiography. LVED and LA diameters were measured in time-motion mode. […] AF duration is measured as the time between the end of the electric stimulation and return to sinusoidal rhythm. […]

A short description of data set [2]: Plasma concentration by LC-MS/MS in I/R rats. Set-up: species or system Male OFA Sprague-dawley rats. As to conditions: rat, in vivo; 25 mg/kg/day (12.5 mg/kg BID) by force-feeding, 4 weeks; blood 90 minutes after last oral administration; ± SD. An excerpt: • Figure 1 is a combination of two graphs showing left atrium (LA) area after one month of treatment with DTI Dabigatran (A) or S35792 (B). Vehicle (V) is 60% H2O/40% PEG 300 for dabigatran and saline for S35972. Treatment of rats started just after thoracotomy without (Sham) or with occlusion of left coronary artery followed by reperfusion (I/R). Results are presented as mean +/- S.E.M, *P<0.05, **P<0.01 and *** P<0.001 vs Sham; ^##P<0.01 and ^###P<0.001 vs untreated I/R. • Figure 2 is a combination of graphs showing left ventricular end-diastolic (LVED) diameter and fractional shortening (FS) after one month of treatment with Dabigatran (A) or S35792 (B). Vehicle (V) is 60% H2O/40% PEG 300 for dabigatran and saline for S35972. Treatment of rats started just after thoracotomy without (Sham) or with occlusion of left coronary artery followed by reperfusion (I/R). Results are presented as mean +/- S.E.M. * P<0.05; ** P<0.001, *** P<0.001 vs Sham; #P<0.05 vs untreated I/R. • Figure 3 is a combination of two graphs showing thrombin time (TT), which reflects anticoagulant activity, and plasma concentrations of Dabigatran (A) and S35792 (B) in rats after throracotomy with occlusion of left coronary artery followed by reperfusion (I/R). Vehicle (V) is 60% H2O/40% PEG 300 for dabigatran and saline for S35972. […] DTI plasma levels are quantified using LC-MS/MS. TT are expressed as mean +/- S.E.M with reference to the mean value of sham animals that underwent thoracotomy only. *** P<0.001 vs untreated I/R. • Figure 4 is a combination of three graphs showing left atrium (LA) area (A) and diameter (B) and left ventricle end-diastolic (LVED) diameter (C) after two months of treatment with S35972. […] LA area was measured by bidimensional echocardiography. LA and LVED diameters were measured in time-motion mode. […] AF duration is measured as the time between the end of the electric stimulation and the return to sinusoidal rhythm. […] Expression of mRNA was measured with real-time qPCR. […] Expression of mRNA was measured with real-time qPCR. […]

Consider `[H]/N=C(/N)c1ccc(NCc2nc3cc(C(=O)N(CCC(=O)O)c4ccccn4)ccc3n2C)cc1` [dabigatran, reference compound], for which, in data set [1], the “thrombin time increases by a factor” value came out at 8. In data set [2], the concentration at 1.5 h worked out at 49.2 ± 19.3 ng/mL.
